Experimental findings from patent US9926282B2, “Phthalazinones and isoquinolinones as rock inhibitors” (BRISTOL-MYERS SQUIBB COMPANY, priority 2013, dated 2018) are described below.

In assay [1] the target is ROCK1 (Homo sapiens (Human), UniProt Q13464). Put plainly: ROCK assay (LABCHIP peptide phosphorylation), ROCK1. As to conditions: 5 μM ATP, 1.5 μM peptide substrate; read-out: ROCK1 IC50. The class given is biochemical.
For assay [2], the target named is ROCK2 (Homo sapiens (Human), UniProt O75116). Put plainly: ROCK assay (LABCHIP peptide phosphorylation), ROCK2. The class given is biochemical. The following applies: 5 μM ATP, 1.5 μM peptide substrate.

One may read the IC50 as the concentration that inhibits the measured activity by half.

Chain of ROCK2 (O75116 whole entry, species assumed): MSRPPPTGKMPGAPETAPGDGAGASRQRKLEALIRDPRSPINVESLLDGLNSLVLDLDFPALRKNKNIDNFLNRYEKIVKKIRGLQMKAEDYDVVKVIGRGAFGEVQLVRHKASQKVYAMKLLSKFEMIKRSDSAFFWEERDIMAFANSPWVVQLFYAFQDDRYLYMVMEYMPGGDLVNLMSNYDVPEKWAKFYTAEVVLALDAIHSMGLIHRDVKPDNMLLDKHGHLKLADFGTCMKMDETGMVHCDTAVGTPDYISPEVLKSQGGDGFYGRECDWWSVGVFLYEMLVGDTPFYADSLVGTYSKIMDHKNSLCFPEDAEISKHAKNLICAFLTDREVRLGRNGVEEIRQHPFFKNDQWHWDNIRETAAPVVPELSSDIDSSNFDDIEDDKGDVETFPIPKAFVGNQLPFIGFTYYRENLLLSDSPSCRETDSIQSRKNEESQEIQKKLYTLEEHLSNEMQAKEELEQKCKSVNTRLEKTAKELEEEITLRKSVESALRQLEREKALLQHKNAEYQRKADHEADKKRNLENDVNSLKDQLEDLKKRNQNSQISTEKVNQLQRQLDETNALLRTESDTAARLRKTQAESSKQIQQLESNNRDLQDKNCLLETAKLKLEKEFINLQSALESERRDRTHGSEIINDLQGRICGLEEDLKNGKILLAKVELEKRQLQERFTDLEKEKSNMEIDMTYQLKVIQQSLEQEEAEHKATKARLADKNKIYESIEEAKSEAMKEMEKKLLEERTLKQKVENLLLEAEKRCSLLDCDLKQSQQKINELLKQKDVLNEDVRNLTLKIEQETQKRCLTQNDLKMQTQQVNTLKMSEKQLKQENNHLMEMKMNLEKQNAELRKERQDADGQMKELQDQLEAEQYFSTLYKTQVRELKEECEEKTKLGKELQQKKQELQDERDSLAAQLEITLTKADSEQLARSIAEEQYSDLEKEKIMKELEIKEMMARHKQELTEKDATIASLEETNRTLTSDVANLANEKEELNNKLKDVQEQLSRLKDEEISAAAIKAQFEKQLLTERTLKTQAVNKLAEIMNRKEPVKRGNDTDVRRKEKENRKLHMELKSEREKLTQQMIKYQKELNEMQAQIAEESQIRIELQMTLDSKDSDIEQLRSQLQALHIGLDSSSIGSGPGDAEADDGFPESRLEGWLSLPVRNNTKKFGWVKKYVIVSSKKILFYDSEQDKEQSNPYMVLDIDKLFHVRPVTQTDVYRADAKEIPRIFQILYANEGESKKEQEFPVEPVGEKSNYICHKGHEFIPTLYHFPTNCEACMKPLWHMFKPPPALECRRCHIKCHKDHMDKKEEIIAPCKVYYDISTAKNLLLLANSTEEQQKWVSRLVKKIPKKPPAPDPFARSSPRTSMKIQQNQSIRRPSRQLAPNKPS
Chain of ROCK1 (Q13464 whole entry, species assumed): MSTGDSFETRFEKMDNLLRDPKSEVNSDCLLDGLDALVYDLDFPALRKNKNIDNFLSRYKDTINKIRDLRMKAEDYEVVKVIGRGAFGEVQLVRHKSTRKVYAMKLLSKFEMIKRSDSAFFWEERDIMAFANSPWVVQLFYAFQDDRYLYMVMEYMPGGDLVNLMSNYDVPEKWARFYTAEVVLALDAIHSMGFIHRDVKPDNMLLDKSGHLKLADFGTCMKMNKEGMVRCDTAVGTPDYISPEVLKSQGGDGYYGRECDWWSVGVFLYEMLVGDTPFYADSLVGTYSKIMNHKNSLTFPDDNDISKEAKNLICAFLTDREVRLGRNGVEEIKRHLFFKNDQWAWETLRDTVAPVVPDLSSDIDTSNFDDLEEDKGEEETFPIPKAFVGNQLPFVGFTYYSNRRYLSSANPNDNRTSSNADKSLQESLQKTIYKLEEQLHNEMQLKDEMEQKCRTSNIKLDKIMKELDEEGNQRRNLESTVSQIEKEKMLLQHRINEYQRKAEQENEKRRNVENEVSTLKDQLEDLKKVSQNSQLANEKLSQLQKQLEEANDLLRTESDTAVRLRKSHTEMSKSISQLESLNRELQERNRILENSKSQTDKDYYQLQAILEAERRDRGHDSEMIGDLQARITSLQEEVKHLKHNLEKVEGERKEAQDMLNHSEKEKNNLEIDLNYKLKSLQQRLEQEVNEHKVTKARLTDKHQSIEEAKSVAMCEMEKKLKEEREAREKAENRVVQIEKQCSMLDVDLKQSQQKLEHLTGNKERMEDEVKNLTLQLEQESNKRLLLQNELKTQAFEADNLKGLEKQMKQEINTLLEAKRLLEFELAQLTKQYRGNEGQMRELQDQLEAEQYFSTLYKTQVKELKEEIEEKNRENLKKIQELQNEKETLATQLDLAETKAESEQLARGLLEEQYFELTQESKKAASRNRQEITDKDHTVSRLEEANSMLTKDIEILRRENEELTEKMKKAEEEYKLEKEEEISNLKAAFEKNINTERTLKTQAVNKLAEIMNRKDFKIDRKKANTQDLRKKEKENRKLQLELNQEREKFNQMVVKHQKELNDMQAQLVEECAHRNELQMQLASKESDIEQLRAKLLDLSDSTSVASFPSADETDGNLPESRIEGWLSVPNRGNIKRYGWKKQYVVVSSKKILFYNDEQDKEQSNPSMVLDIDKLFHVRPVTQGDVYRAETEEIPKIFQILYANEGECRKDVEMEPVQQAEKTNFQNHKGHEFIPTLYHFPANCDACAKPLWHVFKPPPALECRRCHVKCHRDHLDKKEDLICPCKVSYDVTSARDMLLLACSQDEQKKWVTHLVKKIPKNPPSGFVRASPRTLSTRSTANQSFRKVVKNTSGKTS

Regarding `CC1(Cn2nc(C(=O)Nc3ccc(-c4n[nH]c(=O)c5ccccc45)c(Cl)c3)c3ccccc32)COC1` [Example 320, N-[3-chloro-4-(4-oxo-3,4-dihydrophthalazin-1-yl)phenyl]-1-[(3-methyloxetan-3-yl)methyl]-1H-indazole-3-carboxamide], the concentration for half-maximal inhibition (IC50) in assay [1] and in assay [2] was 0.1 to 100 nM each time.
Regarding `CCOc1ccc2oc(C)c(C(=O)Nc3ccc(-c4n[nH]c(=O)c5ccccc45)cc3)c2c1` [Example 100, 5-ethoxy-2-methyl-N-[4-(4-oxo-3,4-dihydrophthalazin-1-yl)phenyl]-1-benzofuran-3-carboxamide], the IC50 in assay [1] and in assay [2] was 0.1 to 100 nM in each case.
Regarding `Cc1c(C(=O)Nc2ccc(-c3n[nH]c(=O)c4ccccc34)cc2)nnn1-c1cccc(C(F)(F)F)c1` [Example 232, 5-methyl-N-[4-(4-oxo-3,4-dihydrophthalazin-1-yl)phenyl]-1-[3-(trifluoromethyl)phenyl]-1H-1,2,3-triazole-4-carboxamide], the values for the IC50 in assay [1] and in assay [2] were 101 to 1000 nM and 0.1 to 100 nM, respectively.
As for `O=C(Nc1ccc(-c2c[nH]c(=O)c3ccccc23)cc1)N1CCc2ccccc21` [Example 77, N-(4-(1-Oxo-1,2-dihydroisoquinolin-4-yl)phenyl)indoline-1-carboxamide], the IC50 in assay [1] and in assay [2] was 0.1 to 100 nM each time.
As for `CN(C(=O)Cc1ccc(-c2n[nH]c(=O)c3ccccc23)cc1)c1ccccc1` [Example 22, N-methyl-2-[4-(4-oxo-3,4-dihydrophthalazin-1-yl)phenyl]-N-phenylacetamide], the IC50 in assay [1] and in assay [2] was 1000 to 50000 nM throughout.
For `COc1ccccc1-n1cc(C(=O)Nc2ccc(-c3n[nH]c(=O)c4ccccc34)cc2)cn1` [Example 197, 1-(2-methoxyphenyl)-N-[4-(4-oxo-3,4-dihydrophthalazin-1-yl)phenyl]-1H-pyrazole-4-carboxamide], the IC50 in assay [1] and in assay [2] was 0.1 to 100 nM in each case.
As to `O=C(Nc1ccc(-c2n[nH]c(=O)c3ccccc23)cc1)c1nn(CC2CCOC2)c2cc(F)ccc12` (centres unmarked) [Example 174, 6-fluoro-N-[4-(4-oxo-3,4-dihydrophthalazin-1-yl)phenyl]-1-(oxolan-3-ylmethyl)-1H-indazole-3-carboxamide], the IC50 in assay [1] and in assay [2] was 0.1 to 100 nM in each case.
Turning to `O=C(Nc1ccc(-c2n[nH]c(=O)c3ccccc23)cc1)c1cnn2cc(OCCN3CCOCC3)ccc12` [Example 188, 6-[2-(morpholin-4-yl)ethoxy]-N-[4-(4-oxo-3,4-dihydrophthalazin-1-yl)phenyl]pyrazolo[1,5-a]pyridine-3-carboxamide], the IC50 in assay [1] and in assay [2] was 0.1 to 100 nM in each case.
As for `NC(=O)COc1ccc2c(c1)N(C(=O)Cc1ccc(-c3n[nH]c(=O)c4ccccc34)cc1)CC2` [Example 298, 2-((1-(2-(4-(4-Oxo-3,4-dihydrophthalazin-1-yl)phenyl)acetyl)indolin-6-yl)oxy)acetamide], the half-inhibitory concentration (IC50) in assay [1] and in assay [2] was 0.1 to 100 nM each time.
As for `COc1ccc2c(=O)[nH]cc(-c3ccc(NC(=O)N4CCc5ccccc54)cc3)c2c1` [Example 266, N-(4-(6-Methoxy-1-oxo-1,2-dihydroisoquinolin-4-yl)phenyl)indoline-1-carboxamide], the half-inhibitory concentration (IC50) in assay [1] and in assay [2] was 0.1 to 100 nM throughout.
As to `CN(C)c1cccc(C(=O)Nc2ccc(-c3c[nH]c(=O)c4ccccc34)cc2)c1` [Example 244, 3-(Dimethylamino)-N-[4-(1-oxo-1,2-dihydroisoquinolin-4-yl)phenyl]benzamide], the half-maximal inhibitory concentration (IC50) in assay [1] and in assay [2] was 0.1 to 100 nM in each case.
Take `O=C(Nc1ccc(-c2n[nH]c(=O)c3ccccc23)cc1)c1cnn(-c2ccccc2)c1Cl` [Example 199, 5-chloro-N-[4-(4-oxo-3,4-dihydrophthalazin-1-yl)phenyl]-1-phenyl-1H-pyrazole-4-carboxamide]: the IC50 in assay [1] and in assay [2] was 0.1 to 100 nM in each case.
Turning to `O=C(Cc1ccc(-c2n[nH]c(=O)c3ccccc23)cc1)Nc1nncs1` [Example 29, 2-[4-(4-oxo-3,4-dihydrophthalazin-1-yl)phenyl]-N-(1,3,4-thiadiazol-2-yl)acetamide], the figures for the IC50 in assay [1] and in assay [2] were 1000 to 50000 nM and 0.1 to 100 nM, respectively.
In the same order, the values of `CC(C)OC(=O)N1CCC(Cn2nc(C(=O)Nc3ccc(-c4n[nH]c(=O)c5ccccc45)cc3)c3ccccc32)CC1` [Example 349, Propan-2-yl 4-[(3-{[4-(4-oxo-3,4-dihydrophthalazin-1-yl)phenyl]carbamoyl}-1H-indazol-1-yl)methyl]piperidine-1-carboxylate] are 0.1 to 100 nM and 0.1 to 100 nM.
Consider `COc1ccc(N2CCN(C(=O)Cc3ccc(-c4n[nH]c(=O)c5ccccc45)cc3)CC2)cc1` [Example 16, 4-(4-{2-[4-(4-methoxyphenyl)piperazin-1-yl]-2-oxoethyl}phenyl)-1,2-dihydrophthalazin-1-one], for which the 50% inhibitory concentration (IC50) in assay [1] and in assay [2] was 1000 to 50000 nM throughout.
On to `O=C(Nc1ccc(-c2n[nH]c(=O)c3ccccc23)c(CO)c1)c1cnc2ccccn12` [Example 365, N-(3-(Hydroxymethyl)-4-(4-oxo-3,4-dihydrophthalazin-1-yl)phenyl)imidazo[1,2-a]pyridine-3-carboxamide], for which the IC50 in assay [1] is 1000 to 50000 nM; in assay [2] (given as number), 222 nM.
With `COCCCn1nc(C(=O)Nc2ccc(-c3n[nH]c(=O)c4ccccc34)cc2)c2ccccc21` [Example 163, 1-(3-methoxypropyl)-N-[4-(4-oxo-3,4-dihydrophthalazin-1-yl)phenyl]-1H-indazole-3-carboxamide], the IC50 in assay [1] and in assay [2] was 0.1 to 100 nM each time.
With `O=C(c1ccc2c(c1)N(C(=O)Cc1ccc(-c3n[nH]c(=O)c4ccccc34)cc1)CC2)N1CCC(O)CC1` [Example 295, 4-(4-{2-[6-(4-hydroxypiperidine-1-carbonyl)-2,3-dihydro-1H-indol-1-yl]-2-oxoethyl}phenyl)-1,2-dihydrophthalazin-1-one], the 50% inhibitory concentration (IC50) in assay [1] fell in the range of 101 to 1000 nM; in assay [2] it was 0.1 to 100 nM.
In the same order, the values of `O=C(Nc1ccc(-c2n[nH]c(=O)c3ccccc23)cc1)c1c[nH]c2ncccc12` [Example 135, N-[4-(4-oxo-3,4-dihydrophthalazin-1-yl)phenyl]-1H-pyrrolo[2,3-b]pyridine-3-carboxamide] are 101 to 1000 nM and 0.1 to 100 nM.
In the same order, the values of `O=C(Nc1ccc(-c2n[nH]c(=O)c3ccccc23)c(CO)c1)c1nn(CC2CCOC2)c2cc(F)ccc12` (centres unmarked) [Example 368, 6-Fluoro-N-(3-(hydroxymethyl)-4-(4-oxo-3,4-dihydrophthalazin-1-yl)phenyl)-1-((tetrahydrofuran-3-yl)methyl)-1H-indazole-3-carboxamide] are 1000 to 50000 nM and 0.1 to 100 nM.
In the same order, the values of `O=C(Cc1ccc(-c2n[nH]c(=O)c3ccccc23)cc1)N1CCc2ccccc21` [Example 23, 4-{4-[2-(2,3-dihydro-1H-indol-1-yl)-2-oxoethyl]phenyl}-1,2-dihydrophthalazin-1-one] are 101 to 1000 nM and 0.1 to 100 nM.
For `O=C(Nc1ccc(-c2n[nH]c(=O)c3ccccc23)cc1)c1cnn2cccnc12` [Example 113, N-[4-(4-oxo-3,4-dihydrophthalazin-1-yl)phenyl]pyrazolo[1,5-a]pyrimidine-3-carboxamide], the IC50 in assay [1] and in assay [2] was 101 to 1000 nM in each case.
